Source: patent US20050032745A1, “Modified low molecular weight heparin that inhibits clot associated coagulation factors” (Hamilton Civic Hospitals Res Dev., Inc., priority 2000, published 2005)

Tests used:
[1] = test system: washed plasma clot; assay: procoagulant activity of washed plasma clot incubated in unanticoagulated whole blood; assay type: biochemical
From the text: There is mounting evidence that both fibrin-bound thrombin and platelet-bound factor Xa contribute to the intense procoagulant activity of thrombi. […] Development of these agents requires an understanding of the mechanisms by which fibrin-bound IIa and platelet-bound factor Xa are protected from inactivation by heparin, LMWH and hirudin.

[2] = test system: injured rabbit aorta; assay: rabbit arterial thrombosis prevention model (flow distal to 95% stenosis in injured aorta); assay type: in vivo; conditions: FIG. 11
Description: This example illustrates a study comparing the efficacy and safety of the MLMWH compounds of the present invention, which are denoted in the figures as V21, LMWH, heparin and hirudin in a the rabbit arterial thrombosis prevention model. […] The arterial thrombosis prevention model was modified so that both efficacy and safety could be assessed in the same animal. Efficacy was assessed by measuring flow over 90 minutes distal to a 95% stenosis in an injured rabbit aorta, and safety was assessed by measuring blood loss over 30 minutes using the rabbit ear model. The four compounds were compared at three dosage levels. Each compound was administered as a bolus and infusion for 90 minutes. The doses listed in the following figures represent the bolus and infusion/60 minutes, administered for 90 minutes. The doses for heparin are shown as units/Kg, for LMWH and V21 as mg/Kg and for hirudin as mg/Kg. V21 has similar anti-Xa activity to LMWH and about twice the anti-IIa activity of LMWH. Thus, the specific activity of LMWH is 100 anti-Xa/mg and 30 anti-IIa units/mg. The specific activity of V21 is 100 anti-Xa units/mg and 60 anti-IIa units/mg, whereas the specific activity of heparin is about 150 anti-Xa units and 150 anti-IIa units/mg. The anticoagulants were compared in the following dosages. […]

Substance | blocking of the ability of a washed plasma clot to accelerate coagulation [1] | response of the model to the antithrombotic effects [2]
TAP: tick anticoagulant peptide, a direct inhibitor of factor Xa (YNRLCIKPRDWIDECDSNEGGERAYFRNGKGGCDSFWICPEDHTGADYYSSYRDCFNACI; UniProt P17726 1-60, looked up) | cannot be blocked | –
hirudin | cannot be blocked | very responsive
